Test system: erythrocytes of female and male blood donor
Assay: Hemolysis study of solvents
Type: cell-based
Settings: for Hemolysis [%]: female and male blood donor (n = 4)
Method: To outline the suitability of PEG500DME as a solvent for parenteral use, a hemolysis study was performed: […]

[1] = dilution 1:2 with 0.9% NaCl solution
[2] = dilution 1:4 with 0.9% NaCl solution
[3] = dilution 1:8 with 0.9% NaCl solution
[4] = dilution 1:16 with 0.9% NaCl solution
[5] = dilution 1:32 with 0.9% NaCl solution
[6] = dilution 1:64 with 0.9% NaCl solution
[7] = dilution 1:128 with 0.9% NaCl solution

CN1CCCC1=O [NMP, 1-methyl-2-pyrrolidinone]
Hemolysis [%] in donor one (dilution 0 (pure solvent)): 28%
Hemolysis [%] in donor one [1]: 0%
Hemolysis [%] in donor one [2]: 0%
Hemolysis [%] in donor one [3]: 0%
Hemolysis [%] in donor one [4]: 0%
Hemolysis [%] in donor one [5]: 0%
Hemolysis [%] in donor one [6]: 0%
Hemolysis [%] in donor one [7]: 0%
Hemolysis [%] in donor two (dilution 0 (pure solvent)): 54%
Hemolysis [%] in donor two [1]: 10%
Hemolysis [%] in donor two [2]: 1%
Hemolysis [%] in donor two [3]: 1%
Hemolysis [%] in donor two [4]: 1%
Hemolysis [%] in donor two [5]: 1%
Hemolysis [%] in donor two [6]: 1%
Hemolysis [%] in donor two [7]: 1%
Hemolysis [%] [1]: 7.8 ± 5.6%
Hemolysis [%] [2]: 0.5 ± 0.6%
Hemolysis [%] [3]: 0.3 ± 0.5%
Hemolysis [%] [4]: 0.3 ± 0.5%
Hemolysis [%] [5]: 0.3 ± 0.5%
Hemolysis [%] [6]: 0.3 ± 0.5%
Hemolysis [%] [7]: 0.3 ± 0.5%

Reference: US9155696B2, “Pharmaceutical compositions” (Novartis AG, priority 2008, dated 2015)
